Here are results for seven compounds from patent publication US20140357579A1, “SYNTHETIC PEPTIDE AMIDES AND DIMERS THEREOF” (priority 2006, published 2014).

Where two headings read alike, the source gives them in different places. Bounds are passed on as bounds.

Data set [1] has as its system mice. The data set can be described thus: Acetic acid-induced writhing assay in mice. The data set is classed as in vivo. Conditions: IRC mice, delivered subcutaneously.
In another data set the target is CYP2C9 (Homo sapiens, UniProt P11712). The data set can be described thus: Cytochrome P450 CYP2C9 inhibition, human liver microsomes (Cerep). Conditions: 10 uM test compound, percent remaining CYP activity. On the technique in general: Microsomes from liver hold many membrane-bound enzymes, among them those of drug oxidation.
Sequence of CYP2C9 (P11712 whole entry): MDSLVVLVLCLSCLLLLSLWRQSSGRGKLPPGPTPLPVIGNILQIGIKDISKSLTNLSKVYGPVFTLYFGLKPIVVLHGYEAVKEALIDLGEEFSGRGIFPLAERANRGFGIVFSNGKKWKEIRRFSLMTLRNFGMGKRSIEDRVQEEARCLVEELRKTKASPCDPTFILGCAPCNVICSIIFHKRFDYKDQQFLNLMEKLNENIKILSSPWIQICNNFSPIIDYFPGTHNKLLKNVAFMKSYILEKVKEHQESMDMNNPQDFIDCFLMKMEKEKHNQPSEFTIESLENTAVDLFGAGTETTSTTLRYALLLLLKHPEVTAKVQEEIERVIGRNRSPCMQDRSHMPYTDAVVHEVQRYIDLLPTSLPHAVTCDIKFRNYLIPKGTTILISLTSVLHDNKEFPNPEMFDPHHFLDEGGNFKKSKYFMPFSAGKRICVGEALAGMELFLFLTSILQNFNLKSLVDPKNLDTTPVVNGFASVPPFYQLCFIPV
Another data set deals with CYP1A. The data set can be described thus: Cytochrome P450 CYP1A inhibition, human liver microsomes (Cerep). To be noted: 10 uM test compound, percent remaining CYP activity.
For data set [2], the system named is mice. The data set can be described thus: Inhibition of locomotion in mice (sedation). Conditions: delivered subcutaneously.
For data set [3], the target named is T1, human kappa opioid receptor (hKOR) (Homo sapiens, UniProt P41145).
T1 construct: expressed in transfected cells; host or cells: HEK-293 cells (ATCC), transient transfection with pcDNA3-hOPRK1
T1 sequence (P41145 whole entry): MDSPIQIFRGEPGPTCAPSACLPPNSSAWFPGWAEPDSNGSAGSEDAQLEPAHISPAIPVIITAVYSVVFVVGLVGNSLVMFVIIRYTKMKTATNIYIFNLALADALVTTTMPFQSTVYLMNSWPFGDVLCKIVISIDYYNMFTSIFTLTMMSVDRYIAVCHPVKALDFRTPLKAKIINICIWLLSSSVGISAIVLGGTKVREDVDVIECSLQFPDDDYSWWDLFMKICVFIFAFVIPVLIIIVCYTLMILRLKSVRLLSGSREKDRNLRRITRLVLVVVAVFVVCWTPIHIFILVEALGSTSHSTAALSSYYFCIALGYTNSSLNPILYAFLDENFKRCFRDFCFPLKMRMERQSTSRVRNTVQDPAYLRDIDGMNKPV
The data set can be described thus: NFAT-luciferase reporter assay in HEK-293 cells transfected with human kappa opioid receptor and chimeric G-protein. In kind it is cell-based. To be noted: for hKOR Efficacy(%) / Emax: percent maximal activation compared to full induction by known kappa agonists; for EC50: transfected HEK-293 cells, luciferase reporter; for Emax: HEK293, read-out: hKOR Efficacy(%). In general terms: Reporter assays use an easily measured gene product as a stand-in for the process of interest.

The next data set addresses CYP3A4 (Homo sapiens, UniProt P08684). The data set can be described thus: Recombinant human cytochrome P450 CYP3A4 inhibition (Cerep). To be noted: 10 uM test compound, percent remaining CYP activity.
Data set [4] addresses T2, mouse kappa opioid receptor (mKOR) (Mus musculus, UniProt P33534).
T2 construct: a mouse thymoma cell line that expresses only the kappa-opioid receptor and no other opioid receptor subtype; host or cells: R1.G1 mouse thymoma cells
The data set can be described thus: Inhibition of forskolin-stimulated cAMP production in R1.G1 cells (TR-FRET cAMP immunoassay). In kind it is cell-based. To be noted: R1.G1 cells.

Another data set addresses CYP2D6 (Homo sapiens, UniProt P10635). The data set can be described thus: Cytochrome P450 CYP2D6 inhibition, human liver microsomes (Cerep). Conditions: 10 uM test compound, percent remaining CYP activity.
Another data set addresses CYP2C19 (Homo sapiens, UniProt P33261). The data set can be described thus: Cytochrome P450 CYP2C19 inhibition, human liver microsomes (Cerep). Conditions: 10 uM test compound, percent remaining CYP activity.
The target in another data set is human mu opioid receptor (Homo sapiens, UniProt P35372). The data set can be described thus: Similar assay for potency on the human mu opioid receptor. The data set is classed as cell-based. On the procedure:
Synthetic peptide amides of the invention were tested in a similar assay for potency on the human mu opioid receptor.
The synthetic peptide amide (53) was tested in a similar assay for potency on the human mu opioid receptor.

The EC50 is the midpoint of the concentration-response curve.

T2 sequence (P33534 whole entry): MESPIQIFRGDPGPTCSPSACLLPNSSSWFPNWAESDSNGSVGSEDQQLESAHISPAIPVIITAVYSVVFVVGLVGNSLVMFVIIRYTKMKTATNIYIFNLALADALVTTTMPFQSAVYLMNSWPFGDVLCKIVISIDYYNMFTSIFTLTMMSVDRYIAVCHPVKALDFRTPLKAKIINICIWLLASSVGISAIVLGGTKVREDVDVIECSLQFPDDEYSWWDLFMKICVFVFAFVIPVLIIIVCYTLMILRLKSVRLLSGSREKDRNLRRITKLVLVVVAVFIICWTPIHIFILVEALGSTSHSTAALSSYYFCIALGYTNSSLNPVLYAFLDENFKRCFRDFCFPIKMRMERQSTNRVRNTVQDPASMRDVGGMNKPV
Sequence of CYP3A4 (P08684 whole entry): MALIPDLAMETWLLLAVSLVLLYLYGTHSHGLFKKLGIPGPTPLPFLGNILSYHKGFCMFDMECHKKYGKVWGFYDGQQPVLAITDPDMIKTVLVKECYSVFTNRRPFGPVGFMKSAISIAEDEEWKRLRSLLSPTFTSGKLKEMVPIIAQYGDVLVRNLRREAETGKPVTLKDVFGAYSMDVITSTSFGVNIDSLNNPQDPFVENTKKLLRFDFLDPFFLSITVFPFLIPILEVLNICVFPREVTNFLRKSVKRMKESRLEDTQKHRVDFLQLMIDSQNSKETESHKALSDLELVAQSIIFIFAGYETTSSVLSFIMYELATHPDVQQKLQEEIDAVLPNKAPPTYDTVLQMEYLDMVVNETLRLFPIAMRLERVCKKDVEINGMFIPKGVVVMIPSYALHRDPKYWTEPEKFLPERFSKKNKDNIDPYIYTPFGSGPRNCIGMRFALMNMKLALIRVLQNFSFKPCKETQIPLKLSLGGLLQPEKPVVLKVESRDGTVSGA
Sequence of CYP2D6 (P10635 whole entry): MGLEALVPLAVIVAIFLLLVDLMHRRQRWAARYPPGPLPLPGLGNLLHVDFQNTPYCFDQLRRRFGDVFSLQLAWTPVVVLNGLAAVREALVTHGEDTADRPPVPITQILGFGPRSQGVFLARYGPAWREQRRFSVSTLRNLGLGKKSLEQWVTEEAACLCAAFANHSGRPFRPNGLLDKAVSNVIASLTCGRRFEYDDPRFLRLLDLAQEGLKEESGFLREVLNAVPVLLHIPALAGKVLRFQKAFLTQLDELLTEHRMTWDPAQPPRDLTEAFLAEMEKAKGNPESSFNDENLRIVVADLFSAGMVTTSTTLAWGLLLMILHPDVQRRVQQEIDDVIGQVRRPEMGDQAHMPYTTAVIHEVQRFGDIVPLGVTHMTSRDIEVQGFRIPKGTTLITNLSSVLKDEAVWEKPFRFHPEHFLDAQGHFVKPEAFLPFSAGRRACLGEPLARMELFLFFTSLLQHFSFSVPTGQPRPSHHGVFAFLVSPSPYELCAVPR
Sequence of CYP2C19 (P33261 whole entry): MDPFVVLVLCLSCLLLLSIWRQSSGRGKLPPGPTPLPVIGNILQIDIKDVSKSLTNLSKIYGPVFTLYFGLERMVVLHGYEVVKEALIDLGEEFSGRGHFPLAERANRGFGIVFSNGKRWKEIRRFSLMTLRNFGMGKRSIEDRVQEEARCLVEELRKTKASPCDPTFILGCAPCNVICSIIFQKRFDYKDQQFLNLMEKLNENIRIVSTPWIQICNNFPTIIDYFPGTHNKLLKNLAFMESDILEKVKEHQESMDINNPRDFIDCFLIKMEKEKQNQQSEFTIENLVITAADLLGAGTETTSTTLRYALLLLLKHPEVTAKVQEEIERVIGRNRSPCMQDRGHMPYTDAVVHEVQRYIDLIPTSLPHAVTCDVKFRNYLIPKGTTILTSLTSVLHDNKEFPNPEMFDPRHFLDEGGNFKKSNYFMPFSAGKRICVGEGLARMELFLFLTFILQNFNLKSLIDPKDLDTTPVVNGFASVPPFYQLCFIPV
Sequence of human mu opioid receptor (P35372 whole entry): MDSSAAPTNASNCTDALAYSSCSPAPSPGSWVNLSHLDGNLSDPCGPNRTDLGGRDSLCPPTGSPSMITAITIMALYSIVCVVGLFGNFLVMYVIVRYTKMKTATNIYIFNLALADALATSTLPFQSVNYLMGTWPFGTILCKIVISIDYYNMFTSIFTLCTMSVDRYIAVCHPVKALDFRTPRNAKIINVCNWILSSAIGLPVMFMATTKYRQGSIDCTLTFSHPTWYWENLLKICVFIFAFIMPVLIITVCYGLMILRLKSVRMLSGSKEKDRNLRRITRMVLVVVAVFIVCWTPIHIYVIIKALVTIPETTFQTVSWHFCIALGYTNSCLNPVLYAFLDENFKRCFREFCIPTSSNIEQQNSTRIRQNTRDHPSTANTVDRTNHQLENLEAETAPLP

Take `CC(C)C[C@@H](NC(=O)[C@@H](Cc1ccccc1)NC(=O)[C@H](N)Cc1ccccc1)C(=O)N[C@H](CCCN)C(=O)N1CCCN(C2=NCCN2)CC1` [Compound 17, D-Phe-D-Phe-D-Leu-D-Orn-[4-(4,5-dihydro-1H-imidazol-2-yl)homopiperazine amide]]: the “ED50 in the acetic acid-induced writhing assay” value with mice [1] came to 0.074 mg/kg. The results for the “Percent Activity of CYP2C9” value at CYP2C9 (Expt 1) and on CYP2C9 (Expt 2) were 99.2% and 98.2%, respectively. In addition, the entries for the “Percent Activity of CYP1A” value with CYP1A (Expt 1) and in the data set with CYP1A (Expt 2) were 97.1% and 95.8%, respectively. In addition, in the data set on mice [2], the “ED50 in the inhibition of locomotion assay” value came to 3.172 mg/kg. Moreover, the “hKOR Efficacy(%)” value in [3] was found to be 90%. Besides, the EC50 in data set [3] (read-out: hKOR EC50) turned out to be 0.12 nM. The “Percent Activity of CYP3A4” value at CYP3A4 (Expt 1) is recorded as 94.7%; on CYP3A4 (Expt 2), 95.9%. Besides, in data set [4], the “mKOR Efficacy(%)” value was 99%. In addition, the “Percent Activity of CYP2D6” value is recorded as 98.4% on CYP2D6 (Expt 1) and 98.2% on CYP2D6 (Expt 2). Further, the “Percent Activity of CYP2C19” value worked out at 94.1% on CYP2C19 (Expt 1) and 97.8% at CYP2C19 (Expt 2).
Turning to `CC(C)C[C@@H](NC(=O)[C@@H](Cc1ccccc1)NC(=O)[C@H](N)Cc1ccccc1)C(=O)N[C@H](CCCN)C(=O)N1CCOC(C(=O)O)C1` (stereo partly drawn) [Compound 53, D-Phe-D-Phe-D-Leu-D-Orn-[R/S-2-carboxymorpholine]-OH], in data set [3], the “hKOR Efficacy(%)” value stood at 100%. In addition, the EC50 on human mu opioid receptor is at least 1000 nM. Also, the “mKOR Efficacy(%)” value in data set [4] stood at 100%.
As for `CNC(=N)N1CCCN(C(=O)[C@@H](CCCN)NC(=O)[C@@H](CC(C)C)NC(=O)[C@@H](Cc2ccccc2)NC(=O)[C@H](N)Cc2ccccc2)CC1` [Compound 19, D-Phe-D-Phe-D-Leu-D-Orn-[4-(N-methyl)amidinohomopiperazine amide]], the Emax in data set [3] is 93%. Further, the EC50 in data set [3] (read-out: hKOR EC50) was determined as 0.21 nM. Besides, the “mKOR Efficacy(%)” value in data set [4] is given as 101%.
For `CC(C)C[C@@H](NC(=O)[C@@H](Cc1ccccc1)NC(=O)[C@H](N)Cc1ccccc1)C(=O)N[C@H](CCCN)C(=O)N1CCCNCC1` [Compound 11, D-Phe-D-Phe-D-Leu-D-Orn-[homopiperazine amide]], in that order: 90%, 0.12 nM and 100%.
On the same counts, the results for `CC(C)C[C@@H](NC(=O)[C@@H](Cc1ccccc1)NC(=O)[C@H](N)Cc1ccccc1)C(=O)N[C@H](CCCN)C(=O)N1CCC(N2CCC[C@H]2C(N)=O)CC1` [Compound 14, D-Phe-D-Phe-D-Leu-D-Orn-[N-(4-piperidinyl)-L-proline]-NH2] are 105%, 0.21 nM and 96%.
For the compound `CC(C)C[C@@H](NC(=O)[C@@H](Cc1ccccc1)NC(=O)[C@H](N)Cc1ccccc1)C(=O)N[C@H](CCCCN)C(=O)N1CCN(S(C)(=O)=O)CC1` [Compound 31, D-Phe-D-Phe-D-Leu-D-Lys-[1-(methylsulfonyl)piperazine amide]], in data set [3], the “hKOR Efficacy(%)” value turned out to be 100%. The “mKOR Efficacy(%)” value in [4] was found to be 82%.
For the compound `CC(C)C[C@@H](NC(=O)[C@H](N)Cc1ccccc1)C(=O)N[C@H](CCCN)C(=O)N[C@@H](CCCCNC(=O)[C@@H](CCCN)NC(=O)[C@@H](CC(C)C)NC(=O)[C@@H](Cc1ccccc1)NC(=O)[C@H](N)Cc1ccccc1)C(=O)O` [Compound 41], in data set [3] (hKOR EC50 (nM)), the EC50 was found to be 0.2 nM. Moreover, the “hKOR Efficacy(%)” value in [3] turned out to be 89%. Moreover, the “mKOR Efficacy(%)” value in [4] amounted to 100%.
